Assay results from patent US20260102503A1, “NANOCOMPOSITES FOR ENHANCED CELLULAR PAYLOAD DELIVERY” (priority 2022, published 2026).
Converted amounts (≈) assume the structure as drawn.

Assays:
Format in all cases: cell-based
AT1 cells = assay: Nanocomposite cellular uptake mechanism study (endocytosis inhibitors, temperature block); conditions: 5 μM, 2 hours pretreatment, vs untreated cells
Description: To determine the NC/NP uptake mechanism used by cells, an endocytosis-inhibition examination was performed. Alveolar Type 1 cells were seeded at confluency in 48-well plates and attached overnight at 37° C. in an incubator with 5% CO2. Rhodamine B-loaded nanocomposites were prepared using a similar procedure done for other studies. After 24 hours of seeding, the AT1 cell culture medium was replaced by fresh 1% serum media containing 5 μM of Amiloride, 5 μM of methyl-β-cyclodextran, 5 μg/mL of Filipin III, 5 μM of Cytochalasin-D, 5 μM of Imipramine, 80 μM Dynasore, or 5 mM of Deoxy-glucose (Sigma Aldrich & Cayman Chemical). After 2 hours, fresh complete media with Rho B-labeled nanocomposites at a concentration of 0.5 mg/mL was added. […] Images were acquired using a fluorescent microscope and processed for NP uptake in random areas using 10 images from each inhibitor group with the ImageJ software.
In a similar fashion, to check if the nanocomposites undergo an energy-dependent uptake, temperature block was studied in AT1 cells by preincubating cells at 4° C. for 30 minutes, followed by treatment with fluorescent nanocomposites for 90 minutes at 4° C. Later, fluorescent images were acquired, and the cell lysates were analyzed for quantitative nanocomposite uptake.

[1] = system: primary alveolar type I epithelial cells (AT1); assay: Cytocompatibility (MTS) in AT1 cells; conditions: 72 hours, 0.0625-1 mg/mL, vs untreated control
Description: Primary lung epithelial cells, RAW macrophages, and HUVECs were used to assess toxicity of the nanocomposites. Nanocomposites were prepared as described in for AT1 cells, in which 20,000 cells/well of primary alveolar type I epithelial cells (AT1) were seeded in 48-well plates. After the overnight culture, various groups of particles including blank PLGA NPs, nanofibers only, and nanocomposites (nanofiber coated-PLGA nanoparticles) were given to the cells in triplicate at various concentrations ranging from 0.0625-1 mg/mL. The nanofiber concentration chosen was equivalent to the peptide amount conjugated onto the nanoparticles. After 72 hours, the cells were washed 3 times with PBS, and MTS reagent was applied to the cells to assess the cell viability following the company's instructions.
In this study, primary lung epithelial cells and kidney epithelial cells (Vero E6) were used to assess toxicity from NPs. NF-coated NPs were prepared as described above, in which 4000 cells/well of primary alveolar type I epithelial cells (AT1 cells) and Vero E6 cells were seeded in 96-well plates. After overnight culturing, RDV NCs were added to the cells in triplicate at various concentrations ranging from 0 to 1 mg/mL. An NF to NP ratio of 0.25 was used for the study. […]

MRSA = assay: microbe, parasite or virus in culture; conditions: Staphylococcus aureus, 24 h

C=C1[C@@H](C)[C@H]2[C@H](Cc3ccccc3)NC(=O)[C@]23[C@H](OC(C)=O)/C=C/[C@@](C)(O)C(=O)[C@@H](C)C/C=C/[C@H]3[C@@H]1O [cytochalasin-D]
effect of endocytosis inhibitor on cellular uptake of NCs (AT1 cells): significant reduction in cellular uptake

Ac-KKKKKKKKKKQWQWQWQWQWQWEEE-NH2 [NFs, K10(QW)6E3]
cytocompatibility (cell viability, MTS) [1]: significant toxicity with concentrations ranging from 0.25-1 mg/mL

CN[C@H](CC(C)C)C(=O)N[C@H]1C(=O)N[C@@H](CC(N)=O)C(=O)N[C@H]2C(=O)N[C@H]3C(=O)N[C@H](C(=O)N[C@H](C(=O)O)c4cc(O)cc(O)c4-c4cc3ccc4O)[C@H](O)c3ccc(c(Cl)c3)Oc3cc2cc(c3O[C@@H]2O[C@H](CO)[C@@H](O)[C@H](O)[C@H]2O[C@H]2C[C@](C)(N)[C@H](O)[C@H](C)O2)Oc2ccc(cc2Cl)[C@H]1O [free vancomycin, vancomycin]
MIC (MRSA): 2 µg/mL (≈ 1.38 µM)
